# Results published in article PMC12053642, “Oral PRI-002 treatment in patients with MCI or mild AD: a randomized, double-blind phase 1b trial” (Nature Communications, 2025).
# Square brackets hold non-standard residues; d marks the D form. Peptide text beside a SMILES is read from it.
# System: patients with MCI or mild dementia due to AD
# Assay: Mini-Mental State Examination (MMSE)
# Format: in vivo, human
# Details: 300 mg q.d. oral 28 d
# Excerpt: Twenty male and female (not of childbearing potential) patients between 50 and 80 years of age, with a Mini mental state examination (MMSE) score of 22 to 30, CSF biomarkers indicating AD pathology (p-tau >62 pg/ml, total CSF Aβ 1-42/1-40 ratio ≤0.055), a MRI scan in accordance with AD diagnosis not older than 3 months, at least 3 months stable medication prior to screening, were enrolled. Nineteen patients were randomized and data analyzed, one patient dropped out by withdrawal of the informed consent before treatment was initiated. Patients underwent an extensive clinical workup and received a MRI brain scan as well as a lumbar puncture. […] Patients who met any of the following criteria were not eligible for enrollment: History of seizures, stroke or transient ischemic attack, unstable medical, neurological, or psychiatric condition. Current treatment with typical antipsychotic or neuroleptic medication or within 6 months prior to screening. Anticoagulants within 3 months prior to screening, chronic use of opiates or opioids (including long-acting opioid medication) within 3 months prior to screening, stimulant medications (amphetamine, methylphenidate preparations, or modafinil) within 1 month prior to screening and throughout the study, chronic use of benzodiazepines, barbiturates, or hypnotics. […]
structure (smiles),measurement,setting,value
CC(C)C[C@@H](NC(=O)[C@H](NC(=O)[C@H]1CCCN1)[C@H](C)O)C(=O)N[C@H](Cc1c[nH]cn1)C(=O)N[C@@H](C(=O)N[C@H](Cc1c[nH]cn1)C(=O)N[C@H](CC(N)=O)C(=O)N[C@H](CCCNC(=N)N)C(=O)N[C@H](CCCNC(=N)N)C(=O)N[C@H](CCCNC(=N)N)C(=O)N[C@H](CCCNC(=N)N)C(=O)N[C@H](CCCNC(=N)N)C(N)=O)[C@H](C)O [PRI-002] (H-[dP][dT][dL][dH][dT][dH][dN][dR][dR][dR][dR][dR]-NH2; N-terminus and C-terminus assumed),"MMSE, Mean","Day 28, n=8",27.9
same,"MMSE, Mean","Day 56, n=9",27.2
